IC50 data for 21 compounds are collected here from ChEMBL document CHEMBL3621065, “Structure-activity relationship studies of SETD8 inhibitors” (Medchemcomm, 2014).

Molecules are shown by their SMILES. pIC50: −log10 of the molar value. Where only a bound is given, the exact number is not on record here.

In this assay the target is T1, N-lysine methyltransferase KMT5A (Homo sapiens, UniProt Q9NQR1).
T1 sequence (Q9NQR1 whole entry): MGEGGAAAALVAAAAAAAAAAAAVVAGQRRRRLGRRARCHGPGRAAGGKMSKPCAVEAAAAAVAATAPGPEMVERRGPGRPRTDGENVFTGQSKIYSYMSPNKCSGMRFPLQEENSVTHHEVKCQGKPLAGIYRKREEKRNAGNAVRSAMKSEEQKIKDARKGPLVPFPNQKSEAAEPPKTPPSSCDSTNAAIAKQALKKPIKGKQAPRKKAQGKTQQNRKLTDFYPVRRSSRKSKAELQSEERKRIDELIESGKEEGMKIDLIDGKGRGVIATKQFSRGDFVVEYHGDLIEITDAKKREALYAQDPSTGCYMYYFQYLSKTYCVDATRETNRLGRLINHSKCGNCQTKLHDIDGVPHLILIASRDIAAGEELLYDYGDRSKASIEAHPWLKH
The assay can be described thus: Inhibition of human SETD8 catalytic domain expressed in Escherichia coli assessed as reduction in transfer of tritiated methyl group from [3H]SAM to biotinylated H4 (1 to 24) peptide substrate by scintillation proximity assay. A general note: In a scintillation proximity assay essentially only radioactivity close to the scintillant gives light.
Regarding `COc1cc2nc(N3CCCC3)nc(NCC(=O)NCCN3CCN(C)CC3)c2cc1OC`, the pIC50 is less than 3.60. Regarding `COc1cc2nc(N3CCCC3)nc(N[C@H]3CC[C@H](N)CC3)c2cc1OC`, the pIC50 was less than 3.60. As for `COc1cc2nc(N3CCCC3)nc(N[C@H]3CC[C@H](CN)CC3)c2cc1OC`, the negative-log IC50 (pIC50) was less than 3.60.

On to `COc1cc2nc(N3CCCC3)nc(NCC(=O)NCCN3CCCC3)c2cc1OC`, for which the pIC50 is less than 3.60. As for `COc1cc2nc(N3CCCC3)nc(NCC(=O)NCCN3CCNCC3)c2cc1OC`, the figure is less than 3.60; as for `COc1cc2nc(N(C)CCN3CCCC3)nc(NCCCCCN3CCCC3)c2cc1OC`, less than 3.60.

For the compound `COc1cc2nc(N(C)CCCN3CCCC3)nc(NCCCCCN3CCCC3)c2cc1OC`, the pIC50 was less than 3.60. As for `COc1cc2nc(N(C)CCCCN3CCCC3)nc(NCCCCCN3CCCC3)c2cc1OC`, the figure is less than 3.60.

`COc1cc2nc(N(C)CCCCCN3CCCC3)nc(NCCCCCN3CCCC3)c2cc1OC`: the negative-log IC50 (pIC50) is less than 3.60.

Consider `COc1cc2nc(N(C)c3ccccc3)nc(NCCCCCN3CCCC3)c2cc1OC`, for which the negative-log IC50 (pIC50) is less than 3.60. Under `COc1ccc(N(C)c2nc(NCCCCCN3CCCC3)c3cc(OC)c(OC)cc3n2)cc1` stands less than 3.60. As for `COc1cc2nc(N(C)c3ccc([N+](=O)[O-])cc3)nc(NCCCCCN3CCCC3)c2cc1OC`, the figure is less than 3.60; as for `COc1cc2nc(Nc3ccccc3)nc(NCCCCCN3CCCC3)c2cc1OC`, less than 3.60; as for `COc1ccc(Nc2nc(NCCCCCN3CCCC3)c3cc(OC)c(OC)cc3n2)cc1`, less than 3.60.

For `COc1cc2nc(Nc3ccc(C(F)(F)F)cc3)nc(NCCCCCN3CCCC3)c2cc1OC`, the pIC50 is less than 3.60.

`COc1cc2nc(Nc3ccc([N+](=O)[O-])cc3)nc(NCCCCCN3CCCC3)c2cc1OC`: the negative logarithm of the IC50 (pIC50) is less than 3.60. For the compound `COc1cc2nc(-c3ccccc3)nc(NCCCCCN3CCCC3)c2cc1OC`, the pIC50 is less than 3.60. Turning to `COc1ccc(-c2nc(NCCCCCN3CCCC3)c3cc(OC)c(OC)cc3n2)cc1`, the pIC50 was less than 3.60. For the compound `COc1cc2nc(-c3ccc(C(F)(F)F)cc3)nc(NCCCCCN3CCCC3)c2cc1OC`, the pIC50 is less than 3.60. On to `COc1cc2nc(-c3ccc(F)cc3)nc(NCCCCCN3CCCC3)c2cc1OC`, for which the pIC50 was less than 3.60. On to `c1ccc2c(NCCCCCN3CCCC3)nc(N3CCCC3)nc2c1`, for which the pIC50 was less than 3.60.

A word on the pIC50: it is the negative decadic logarithm of the IC50, by convention in mol/L.
